Experimental data taken from EP0565593B1, “REDUCING PESTICIDAL INTERACTIONS IN CROPS” (priority 1990, dated 1992).
Where “and” joins values, the source holds several entries; their conditions need not be identical. Equal entries are not always repeated. Where two headings read alike, the source gives them in different places.

Key:
Velvetleaf (VELE) [1] = assay: whole plant or invertebrate; assay type: in vivo, Abutilon theophrasti; conditions: […]; PPI; 14 days after PPI (Table 34)
Giant foxtail (GIFT) = assay: Greenhouse test Procedure VI (Examples 59-61; Tables 58-60); assay type: in vivo
Source text: (§1) This procedure describes interaction among herbicide, biocide and antidote when the herbicide is incorporated in a soil cover layer and the biocide and the antidote are applied in a soil furrow containing crop seed before emergence of the crop. The soil and seeding depth were described in Procedure IV. A first container was designated as an untreated control, a second container was designated as a herbicide control, a third container was designated as a herbicide + biocide control and a fourth container as a herbicide + biocide + antidote test container. The biocide and antidote were formulated as granules. The biocide was applied to the soil furrows of the third and fourth containers at an application rate of 1.1 mg of active compound per cm of row. The antidote was applied to the soil furrow of the fourth container at an application rate of 0.37 mg of active compound per cm of row. A measured amount of the herbicide dispersed or dissolved in acetone was applied to a measured quantity of soil. The quantity of soil treated with the herbicide was thoroughly mixed to incorporate the herbicide. Samples of this soil were used to cover the seed beds of the second, third and fourth containers. For each test series, the seed bed of the first container was likewise covered by a soil layer not treated with herbicide and without biocide or antidote in the soil furrow.
(§2) The containers were then placed on a bench in a greenhouse. Watering was by subirrigation plus overhead irrigation after the plants emerged. All treatments were run in duplicate. Plant response was observed according to Procedure IV. Variations in this procedure will be noted in the examples.
(§3) The procedure used in this example involved the PPI application of biocide and safener as described in general Procedure VI above. The "primary" herbicide in this test was MON-12000 (Herbi-cide No. 1) in admixture with other herbicides designated as "co-herbicides", which included LASSO® (co-herbicide B); DUAL® (C); acetochlor (A); EPTAM® (D); butylate (E) and PURSUIT® (K).
(§4) The in-furrow treatments with blended COUNTER 15G and antidote mixtures was as described in above examples. MON-12000 and the co-herbicides were formulated in acetone and applied as tank mixtures, incorporated into Dupo silt loam soil with a rotary drum mixer. Subsamples were used to cover seeded and in-furrow treated 10.2 cm pots. Pots were placed on greenhouse benches and subirrigated. Plant responses were observed thirteen days after PPI initiation. Test results (average of two replications) are shown in Table 58, wherein giant foxtail (GIFT) was used in place of shattercane.
(§5) This test was conducted in the same manner used in Example 59. All biocide and antidote components were the same and in these tests XRD-498 (Herbicide No. 21) was the prime herbicide. Co-herbicides are shown in Table 59 together with test data.
(§6) In one other test conducted as described in the preceding examples in this series of tests, the herbicide PURSUIT® was used as the primary herbicide (in the context of this invention) together with the same insecticide and safeners as above and the co-herbicides shown in Table 60, together with test results.

Velvetleaf (VELE) [2] = assay: as above; assay type: in vivo, Abutilon theophrasti
Source text: as §1, §2, §3, §4, §5, §6

wheat (WHEA) = assay: Multi-crop greenhouse test, soil-applied (Examples 65, 66; Tables 64, 65); assay type: in vivo
In short: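 Injury to crops and weeds was rated after granular COUNTER 15G and acetone-delivered safeners were mixed into cover soil over seeded silt loam pans. MON-12000 followed POE 6 days after PPI, with injury read 10 days later. Two replicates.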

Velvetleaf (VELE) [3] = assay type: in vivo, Abutilon theophrasti
[4] = Antidote + Biocide No. 1 in furrow, Herbicide No. 6 0.14 Kg/Ha PPI
[5] = Antidote + Biocide No. 1 in furrow, Herbicide No. 11 0.0044 Kg/Ha PPI
[6] = Antidote + Biocide No. 1 in furrow, Herbicide No. 12 0.0044 Kg/Ha PPI
[7] = Antidote + Biocide No. 1 in furrow, Herbicide No. 13 0.0011 Kg/Ha PPI
[8] = Antidote + Biocide No. 1 in furrow, Herbicide No. 13 0.0022 Kg/Ha PPI
[9] = Antidote + Biocide No. 1 in furrow, Herbicide No. 14 0.07 Kg/Ha PPI
[10] = Antidote + Biocide No. 1 in furrow, Herbicide No. 16 0.07 Kg/Ha PPI, 13 days
[11] = Antidote + Biocide No. 1 in furrow, Herbicide No. 17 0.14 Kg/Ha PPI, 13 days
[12] = Antidote + Biocide No. 1 in furrow, Herbicide No. 18 0.04 Kg/Ha PPI, 13 days
[13] = Antidote + Biocide No. 1 in furrow, Herbicide No. 20 1.12 Kg/Ha PPI, 13 days
[14] = Antidote + Biocide No. 1 in furrow, Herbicide No. 22 0.28 Kg/Ha PPI, 13 days
[15] = Antidote + Biocide No. 1 in furrow, Herbicide No. 24 0.14 Kg/Ha PPI, 13 days
[16] = Antidote + Biocide No. 1 in furrow, Herbicide No. 25 0.14 Kg/Ha PPI, 13 days
[17] = Antidote + Biocide No. 1 in furrow, Herbicide No. 26 2.24 Kg/Ha PPI, 13 days
[18] = Antidote + Biocide No. 1 in furrow, Herbicide No. 28 0.04 Kg/Ha PPI, 13 days
[19] = Herbicide No. 12 0.0044 Kg/Ha PPI + Biocide No. 1 in furrow, no antidote
[20] = Herbicide No. 12 0.0044 Kg/Ha PPI alone, average of two reps

**Q.** With `COC(=O)COC(c1ccccc1)c1ccccc1` [compound 12] as the compound, how does the “% Inhibition VELE” value (Velvetleaf (VELE) [1]) read?
**A.** 90%

**Q.** And the “% Inhibition GIFT” value (Giant foxtail (GIFT); [4])?
**A.** 60%

**Q.** What about the “% Inhibition GIFT” value (Giant foxtail (GIFT); [5]) of the same compound?
**A.** 0%

**Q.** What about the “% Inhibition GIFT” value (Giant foxtail (GIFT); [6]) of the same compound?
**A.** 0%

**Q.** And the “% Inhibition GIFT” value (Giant foxtail (GIFT); [7])?
**A.** 0%

**Q.** What about the “% Inhibition GIFT” value (Giant foxtail (GIFT); [8]) of the same compound?
**A.** 25%

**Q.** What about the “% Inhibition GIFT” value (Giant foxtail (GIFT); [9]) of the same compound?
**A.** 0%

**Q.** And the “% Inhibition GIFT” value (Giant foxtail (GIFT); [10])?
**A.** 35%

**Q.** What about the “% Inhibition GIFT” value (Giant foxtail (GIFT); [11]) of the same compound?
**A.** 80%

**Q.** And the “% Inhibition GIFT” value (Giant foxtail (GIFT); [12])?
**A.** 50%

**Q.** What about the “% Inhibition GIFT” value (Giant foxtail (GIFT); [13]) of the same compound?
**A.** 25%

**Q.** And the “% Inhibition GIFT” value (Giant foxtail (GIFT); [14])?
**A.** 20%

**Q.** What about the “% Inhibition GIFT” value (Giant foxtail (GIFT); [15]) of the same compound?
**A.** 20%

**Q.** And the “% Inhibition GIFT” value (Giant foxtail (GIFT); [16])?
**A.** 25%

**Q.** What about the “% Inhibition GIFT” value (Giant foxtail (GIFT); [17]) of the same compound?
**A.** 0%

**Q.** And the “% Inhibition GIFT” value (Giant foxtail (GIFT); [18])?
**A.** 35%

**Q.** What about the “% Inhibition GIFT” value (Giant foxtail (GIFT); [19]) of the same compound?
**A.** 0%

**Q.** What about the “% Inhibition GIFT” value (Giant foxtail (GIFT); [20]) of the same compound?
**A.** 0%

**Q.** What about the “% Inhibition VELE” value (Velvetleaf (VELE) [2]; [4]) of the same compound?
**A.** 65%

**Q.** What about the “% Inhibition VELE” value (Velvetleaf (VELE) [2]; [5]) of the same compound?
**A.** 70%

**Q.** And the “% Inhibition VELE” value (Velvetleaf (VELE) [2]; [6])?
**A.** 60%

**Q.** And the “% Inhibition VELE” value (Velvetleaf (VELE) [2]; [7])?
**A.** 15%

**Q.** And the “% Inhibition VELE” value (Velvetleaf (VELE) [2]; [8])?
**A.** 60%

**Q.** And the “% Inhibition VELE” value (Velvetleaf (VELE) [2]; [9])?
**A.** 85%

**Q.** And the “% Inhibition VELE” value (Velvetleaf (VELE) [2]; [10])?
**A.** 60%

**Q.** What about the “% Inhibition VELE” value (Velvetleaf (VELE) [2]; [11]) of the same compound?
**A.** 80%

**Q.** And the “% Inhibition VELE” value (Velvetleaf (VELE) [2]; [12])?
**A.** 70%

**Q.** What about the “% Inhibition VELE” value (Velvetleaf (VELE) [2]; [13]) of the same compound?
**A.** 95%

**Q.** What about the “% Inhibition VELE” value (Velvetleaf (VELE) [2]; [14]) of the same compound?
**A.** 75%

**Q.** And the “% Inhibition VELE” value (Velvetleaf (VELE) [2]; [15])?
**A.** 90%

**Q.** And the “% Inhibition VELE” value (Velvetleaf (VELE) [2]; [16])?
**A.** 70%

**Q.** What about the “% Inhibition VELE” value (Velvetleaf (VELE) [2]; [17]) of the same compound?
**A.** 55%

**Q.** And the “% Inhibition VELE” value (Velvetleaf (VELE) [2]; [18])?
**A.** 80%

**Q.** What about the “% Inhibition VELE” value (Velvetleaf (VELE) [2]; [19]) of the same compound?
**A.** 50%

**Q.** And the “% Inhibition VELE” value (Velvetleaf (VELE) [2]; [20])?
**A.** 50%

**Q.** What about the “% Inhibition WHEA” value (wheat (WHEA); Table 64, Herb. No. 1 0.018 Kg/Ha + Biocide No. 1 8.96 Kg/Ha + Antidote 4.48 Kg/Ha) of the same compound?
**A.** 0%

**Q.** And the “% Inhibition WHEA” value (wheat (WHEA); Table 64, Herb. No. 1 0.07 Kg/Ha + Biocide No. 1 8.96 Kg/Ha + Antidote 4.48 Kg/Ha)?
**A.** 0%

**Q.** What about the “% Inhibition WHEA” value (wheat (WHEA); Table 64, Herb. No. 1 0.28 Kg/Ha + Biocide No. 1 8.96 Kg/Ha + Antidote 4.48 Kg/Ha) of the same compound?
**A.** 0%

**Q.** And the “% Inhibition WHEA” value (wheat (WHEA); Table 65, Herb. No. 1 0.018 Kg/Ha + Biocide No. 1 8.96 Kg/Ha + Antidote 4.48 Kg/Ha)?
**A.** 0%

**Q.** What about the “% Inhibition WHEA” value (wheat (WHEA); Table 65, Herb. No. 1 0.07 Kg/Ha + Biocide No. 1 8.96 Kg/Ha + Antidote 4.48 Kg/Ha) of the same compound?
**A.** 0%

**Q.** What about the “% Inhibition WHEA” value (wheat (WHEA); Table 65, Herb. No. 1 0.28 Kg/Ha + Biocide No. 1 8.96 Kg/Ha + Antidote 4.48 Kg/Ha) of the same compound?
**A.** 20%

**Q.** What about the “% Inhibition 5 DAP VELE” value (Velvetleaf (VELE) [3]; Antidote 4.48 + Biocide No. 1 8.96 Kg/Ha PPI, Herb. No. 8 0.07, 5 DAP, before herbicide application) of the same compound?
**A.** 25%

**Q.** What about the “% Inhibition 13 DAP VELE” value (Velvetleaf (VELE) [3]; Antidote 4.48 + Biocide No. 1 8.96 Kg/Ha PPI, Herb. No. 8 0.07 POE, 13 DAP) of the same compound?
**A.** 90%

**Q.** What about the “% Inhibition VELE” value (Velvetleaf (VELE) [3]; Antidote 4.48 + Biocide No. 1 8.96 Kg/Ha PPI, Herbicide No. 7 0.28 POE, 13 days after planting) of the same compound?
**A.** 65%

**Q.** And the “% Inhibition 5 DAP VELE” value (Velvetleaf (VELE) [3]; Herb. […], 5 DAP, before herbicide application)?
**A.** 0%

**Q.** And the “% Inhibition 13 DAP VELE” value (Velvetleaf (VELE) [3]; Herb. […], 13 DAP, after herbicide application)?
**A.** 90%

**Q.** What about the “% Inhibition VELE” value (Velvetleaf (VELE) [3]; Table 14: Herbicide No. 7 (ACCENT) 0.84 Kg/Ha POE + Biocide No. 2 8.96 Kg/Ha PPI + antidote 4.48 Kg/Ha PPI, 13 days after planting, 8 days after herbicide) of the same compound?
**A.** 70%

**Q.** And the “% Inhibition VELE” value (Velvetleaf (VELE) [3]; […], 13 days after planting, 8 days after herbicide)?
**A.** 75%

**Q.** What about the “% Inhibition VELE” value (Velvetleaf (VELE) [3]; […], observed 8 days later (Table 32)) of the same compound?
**A.** 85%

**Q.** What about the “% Inhibition VELE” value (Velvetleaf (VELE) [3]; […], observed 8 days later (Table 33)) of the same compound?
**A.** 75%

**Q.** And the “% Inhibition VELE” value (Velvetleaf (VELE) [3]; […], observed 10 days after herbicide application)?
**A.** 90%

**Q.** What about the “% Inhibition 5 DAP VELE” value (Velvetleaf (VELE) [3]; in vivo) of the same compound?
**A.** 20%

**Q.** What about the “% Inhibition 13 DAP VELE” value (Velvetleaf (VELE) [3]; in vivo) of the same compound?
**A.** 85%

**Q.** And the “% Inhibition VELE” value (Velvetleaf (VELE) [3]; in vivo)?
**A.** 70% and 65% and 85% and 75% and 90% and 80%
